In the NIST ThermoML archive (doi:10.1021/je050006+):

Key:
[1] = xn = mol fraction of the nth substance listed; details: 101.3 kPa, Liquid
[2] = excess molar enthalpy (molar enthalpy of mixing); xn = mol fraction of the nth substance listed; details: 101.3 kPa, Liquid

C=C1CCC2CC1C2(C)C (stereo not drawn) [β-pinene] + CCCO
Details | excess molar enthalpy [kcal/mol] | mass density [kg/m3] | speed of sound [m/s]
[1], 283.15 K, x1 = 0.0505 | – | 818.13 | 1265.6
[1], 283.15 K, x1 = 0.1024 | – | 824.2 | 1272.7
[1], 283.15 K, x1 = 0.2046 | – | 834.58 | 1285.3
[1], 283.15 K, x1 = 0.3046 | – | 843.01 | 1296
[1], 283.15 K, x1 = 0.405 | – | 850.35 | 1305.5
[1], 283.15 K, x1 = 0.5035 | – | 856.46 | 1313.7
[1], 283.15 K, x1 = 0.599 | – | 861.68 | 1321.2
[1], 283.15 K, x1 = 0.7026 | – | 866.65 | 1328.8
[1], 283.15 K, x1 = 0.8026 | – | 871.06 | 1336.3
[1], 283.15 K, x1 = 0.8834 | – | 874.33 | 1342.6
[1], 283.15 K, x1 = 0.9488 | – | – | 1348.5
[1], 283.15 K, x1 = 0.9489 | – | 876.85 | –
[1], 283.15 K, x1 = 0.9812 | – | 878.27 | 1352.9
[1], 298.15 K, x1 = 0.053 | – | 806.47 | 1212.9
[1], 298.15 K, x1 = 0.1036 | – | 812.35 | 1219
[1], 298.15 K, x1 = 0.2039 | – | 822.4 | 1229.7
[1], 298.15 K, x1 = 0.3038 | – | 830.81 | 1239.1
[1], 298.15 K, x1 = 0.3966 | – | 837.49 | 1246.9
[1], 298.15 K, x1 = 0.5122 | – | 844.67 | 1255.7
[1], 298.15 K, x1 = 0.6005 | – | 849.44 | 1261.8
[1], 298.15 K, x1 = 0.699 | – | 854.2 | 1268.6
[1], 298.15 K, x1 = 0.793 | – | – | 1275.4
[1], 298.15 K, x1 = 0.7931 | – | 858.43 | –
[1], 298.15 K, x1 = 0.8937 | – | 862.59 | 1283.3
[1], 298.15 K, x1 = 0.9426 | – | 864.54 | 1287.9
[1], 298.15 K, x1 = 0.9834 | – | 866.31 | 1293.6
[1], 313.15 K, x1 = 0.0514 | – | 794.24 | 1160.5
[1], 313.15 K, x1 = 0.1021 | – | 800.04 | 1165.7
[1], 313.15 K, x1 = 0.2032 | – | 810.14 | 1175
[1], 313.15 K, x1 = 0.307 | – | 818.69 | 1183.4
[1], 313.15 K, x1 = 0.405 | – | 825.65 | 1190.4
[1], 313.15 K, x1 = 0.5007 | – | 831.57 | 1196.5
[1], 313.15 K, x1 = 0.6004 | – | 837.06 | 1202
[1], 313.15 K, x1 = 0.7051 | – | 842.2 | 1206.4
[1], 313.15 K, x1 = 0.7928 | – | 846.14 | 1213.3
[1], 313.15 K, x1 = 0.8931 | – | 850.44 | 1222.1
[1], 313.15 K, x1 = 0.9407 | – | 852.42 | 1225.6
[1], 313.15 K, x1 = 0.9786 | – | 854.11 | 1228.9
[2], 283.15 K, x1 = 0.067 | 0.0146 | – | –
[2], 283.15 K, x1 = 0.135 | 0.0304 | – | –
[2], 283.15 K, x1 = 0.263 | 0.0564 | – | –
[2], 283.15 K, x1 = 0.38 | 0.0755 | – | –
[2], 283.15 K, x1 = 0.488 | 0.0891 | – | –
[2], 283.15 K, x1 = 0.585 | 0.0963 | – | –
[2], 283.15 K, x1 = 0.677 | 0.0994 | – | –
[2], 283.15 K, x1 = 0.764 | 0.097 | – | –
[2], 283.15 K, x1 = 0.855 | 0.086 | – | –
[2], 283.15 K, x1 = 0.926 | 0.0674 | – | –
[2], 283.15 K, x1 = 0.97 | 0.0473 | – | –
[2], 298.15 K, x1 = 0.067 | 0.0213 | – | –
[2], 298.15 K, x1 = 0.135 | 0.0423 | – | –
[2], 298.15 K, x1 = 0.263 | 0.0803 | – | –
[2], 298.15 K, x1 = 0.38 | 0.109 | – | –
[2], 298.15 K, x1 = 0.488 | 0.129 | – | –
[2], 298.15 K, x1 = 0.585 | 0.14 | – | –
[2], 298.15 K, x1 = 0.677 | 0.147 | – | –
[2], 298.15 K, x1 = 0.764 | 0.14 | – | –
[2], 298.15 K, x1 = 0.855 | 0.127 | – | –
[2], 298.15 K, x1 = 0.926 | 0.0978 | – | –
[2], 298.15 K, x1 = 0.97 | 0.0626 | – | –
[2], 313.15 K, x1 = 0.067 | 0.0277 | – | –
[2], 313.15 K, x1 = 0.135 | 0.0581 | – | –
[2], 313.15 K, x1 = 0.263 | 0.11 | – | –
[2], 313.15 K, x1 = 0.38 | 0.15 | – | –
[2], 313.15 K, x1 = 0.488 | 0.177 | – | –
[2], 313.15 K, x1 = 0.585 | 0.192 | – | –
[2], 313.15 K, x1 = 0.677 | 0.196 | – | –
[2], 313.15 K, x1 = 0.764 | 0.188 | – | –
[2], 313.15 K, x1 = 0.855 | 0.163 | – | –
[2], 313.15 K, x1 = 0.926 | 0.124 | – | –
[2], 313.15 K, x1 = 0.97 | 0.0791 | – | –

C=C1CCC2CC1C2(C)C (stereo not drawn) [β-pinene] + CCO
Details | excess molar enthalpy, [2] [kcal/mol] | mass density, [1] [kg/m3] | speed of sound, [1] [m/s]
283.15 K, x1 = 0.0507 | – | 807.27 | 1209.5
283.15 K, x1 = 0.071 | 0.0261 | – | –
283.15 K, x1 = 0.1012 | – | 815.62 | 1222.5
283.15 K, x1 = 0.142 | 0.0492 | – | –
283.15 K, x1 = 0.2046 | – | 829.52 | 1246.3
283.15 K, x1 = 0.269 | 0.0798 | – | –
283.15 K, x1 = 0.3015 | – | 839.85 | 1265.4
283.15 K, x1 = 0.394 | 0.0997 | – | –
283.15 K, x1 = 0.4042 | – | 848.66 | 1282.4
283.15 K, x1 = 0.496 | 0.109 | – | –
283.15 K, x1 = 0.5145 | – | 856.44 | 1298.8
283.15 K, x1 = 0.599 | 0.117 | – | –
283.15 K, x1 = 0.6019 | – | 861.6 | 1309.4
283.15 K, x1 = 0.689 | 0.117 | – | –
283.15 K, x1 = 0.6981 | – | 866.52 | 1320.5
283.15 K, x1 = 0.773 | 0.115 | – | –
283.15 K, x1 = 0.7932 | – | 870.77 | 1330.4
283.15 K, x1 = 0.864 | 0.105 | – | –
283.15 K, x1 = 0.8762 | – | 874.13 | 1339.3
283.15 K, x1 = 0.93 | 0.0844 | – | –
283.15 K, x1 = 0.9355 | – | 876.41 | 1345.8
283.15 K, x1 = 0.964 | 0.0664 | – | –
283.15 K, x1 = 0.9799 | – | 878.19 | 1353.4
298.15 K, x1 = 0.0502 | – | 794.53 | 1156.2
298.15 K, x1 = 0.071 | 0.0349 | – | –
298.15 K, x1 = 0.1022 | – | 803.02 | 1168.9
298.15 K, x1 = 0.142 | 0.0645 | – | –
298.15 K, x1 = 0.1999 | – | 816.23 | 1189.9
298.15 K, x1 = 0.269 | 0.104 | – | –
298.15 K, x1 = 0.3045 | – | 827.43 | 1209
298.15 K, x1 = 0.394 | 0.129 | – | –
298.15 K, x1 = 0.4019 | – | 835.85 | 1224.1
298.15 K, x1 = 0.496 | 0.14 | – | –
298.15 K, x1 = 0.5 | – | 842.91 | 1237.4
298.15 K, x1 = 0.599 | 0.145 | – | –
298.15 K, x1 = 0.6017 | – | 849.06 | 1249.8
298.15 K, x1 = 0.689 | 0.145 | – | –
298.15 K, x1 = 0.6999 | – | 854.18 | 1260.6
298.15 K, x1 = 0.7626 | – | 857.17 | 1264.9
298.15 K, x1 = 0.773 | 0.139 | – | –
298.15 K, x1 = 0.864 | 0.122 | – | –
298.15 K, x1 = 0.89 | – | 862.45 | 1280.4
298.15 K, x1 = 0.93 | 0.0932 | – | –
298.15 K, x1 = 0.9415 | – | 864.49 | 1286.3
298.15 K, x1 = 0.964 | 0.0777 | – | –
298.15 K, x1 = 0.98 | – | 866.07 | 1294.5
313.15 K, x1 = 0.052 | – | 782.17 | 1104.8
313.15 K, x1 = 0.071 | 0.0433 | – | –
313.15 K, x1 = 0.1041 | – | 790.76 | 1116.6
313.15 K, x1 = 0.142 | 0.0813 | – | –
313.15 K, x1 = 0.2043 | – | 804.04 | 1135.7
313.15 K, x1 = 0.269 | 0.135 | – | –
313.15 K, x1 = 0.3029 | – | 814.57 | 1151.7
313.15 K, x1 = 0.394 | 0.171 | – | –
313.15 K, x1 = 0.4046 | – | 823.44 | 1167
313.15 K, x1 = 0.496 | 0.19 | – | –
313.15 K, x1 = 0.4981 | – | 830.17 | 1178.5
313.15 K, x1 = 0.599 | 0.2 | – | –
313.15 K, x1 = 0.6014 | – | 836.54 | 1189.8
313.15 K, x1 = 0.689 | 0.199 | – | –
313.15 K, x1 = 0.6979 | – | 841.7 | 1198.7
313.15 K, x1 = 0.773 | 0.191 | – | –
313.15 K, x1 = 0.809 | – | 846.76 | 1207
313.15 K, x1 = 0.864 | 0.167 | – | –
313.15 K, x1 = 0.8844 | – | 850.12 | 1213.6
313.15 K, x1 = 0.93 | 0.137 | – | –
313.15 K, x1 = 0.9356 | – | 852.26 | 1221.9
313.15 K, x1 = 0.964 | 0.0944 | – | –
313.15 K, x1 = 0.985 | – | 854.6 | 1228.9
